Patent US20100029615A1, “BENZIMIDAZOLE DERIVATIVES” (priority 2006, published 2010)
Structures can show the parent of a compound that is named as a salt.

What follows are molecules tested against T1, SMO (Mus musculus, UniProt P56726) (assay: Smoothened (SMO)/Sonic Hedgehog (SHh) Transient Transcriptional Activation Assay (Gli-luciferase reporter in C3H10T1/2 cells)). Details: 2 uM test compound, SHh 250 ng/ml, 20 hrs.
T1 construct: endogenous in cells; host or cells: C3H10T1/2 (ATCC #CCL-226)
Assay type: cell-based, murine
Method in brief: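 C3H10T1/2 cells transiently transfected with a 10× murine Gli-responsive firefly luciferase reporter plus pEGFP, serum-starved 20 h in 0.5% calf serum, then treated with compounds (2 uM–2 nM final) and 250 ng/ml recombinant human SHh for 20 h at 37 °C. Read-out: Dual-Glo luminescence.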

T1 sequence (P56726 33-793): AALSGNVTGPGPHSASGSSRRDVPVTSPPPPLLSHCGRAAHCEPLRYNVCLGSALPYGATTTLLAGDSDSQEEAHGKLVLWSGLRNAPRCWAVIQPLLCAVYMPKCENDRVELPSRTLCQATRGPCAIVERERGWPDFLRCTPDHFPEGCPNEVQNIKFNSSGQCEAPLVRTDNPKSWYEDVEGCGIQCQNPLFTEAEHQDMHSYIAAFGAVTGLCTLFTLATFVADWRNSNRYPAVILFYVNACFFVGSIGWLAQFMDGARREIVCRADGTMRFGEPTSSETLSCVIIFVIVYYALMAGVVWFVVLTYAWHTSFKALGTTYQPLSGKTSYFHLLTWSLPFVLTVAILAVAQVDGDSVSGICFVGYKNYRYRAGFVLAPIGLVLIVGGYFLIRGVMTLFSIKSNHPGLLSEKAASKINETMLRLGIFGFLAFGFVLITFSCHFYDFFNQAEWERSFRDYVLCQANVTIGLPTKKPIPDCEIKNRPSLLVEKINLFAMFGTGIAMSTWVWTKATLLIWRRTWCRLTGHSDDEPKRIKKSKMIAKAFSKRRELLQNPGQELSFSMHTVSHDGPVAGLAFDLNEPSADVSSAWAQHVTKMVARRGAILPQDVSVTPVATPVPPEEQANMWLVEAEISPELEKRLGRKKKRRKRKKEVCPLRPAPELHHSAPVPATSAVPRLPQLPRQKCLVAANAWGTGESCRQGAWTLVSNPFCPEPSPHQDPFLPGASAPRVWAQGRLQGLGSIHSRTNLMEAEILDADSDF

Molecule | SMO % inhibition at 2 uM [%]
N-(3-(1,5-Dimethyl-1H-benzo[d]imidazol-2-yl)cyclohexyl]-3,5-dimethoxybenzamide and N-(3-(1,6-dimethyl-1H-benzo[d]imidazol-2-yl)cyclohexyl]-3,5-dimethoxybenzamide [Example 22] | 98
N-(3-(1-Methyl-6-(morpholinomethyl)-1H-benzo[d]imidazol-2-yl]cyclohexyl)-2,3-dihydrobenzo[b][1,4]dioxine-6-carboxamide and N-(3-(1-Methyl-5-(morpholinomethyl)-1H-benzo[d]imidazol-2-yl]cyclohexyl)-2,3-dihydrobenzo[b][1,4]dioxine-6-carboxamide [Example 37] | 88

Same assay, conditions: 2 μM test compound, SHh 250 ng/ml, 20 hrs

Molecule | SMO CELL % INHIBITION @ 2 μM [%]
Cl.O=C(N[C@H]1CCC[C@H](c2nc3ccccc3[nH]2)C1)c1ccc2c(c1)CN(CC1CC1)CC2 [Example 291, N-[(1S,3S)-3-(1H-benzimidazol-2-yl)cyclohexyl]-2-(cyclopropyl-methyl)-1,2,3,4-tetrahydroisoquino-line-7-carboxamide HCl] | 85.2

Same assay, conditions: 2 μM test compound, SHh 250 ng/ml, 20 hrs, HCl, 2 µM

Molecule | SMO CELL % INHIBITION @ 2 μM [%]
N#Cc1ccc(NC(=O)NC23CCCC(c4nc5cc(C(F)(F)F)ccc5[nH]4)(C2)C3)cc1 [Example 262, 1-(4-cyanophenyl)-3-{5-[5-(trifluoromethyl)-1H-benzimidazol-2-yl]bicyclo[3.1.1]hept-1-yl}urea HCl] | 89

Same assay, conditions: C3H 10T1/2, 2 uM test compound, SHh 250 ng/ml, 20 hrs, read-out: SMO % inhibition at 2 uM

Molecule | inhibition at 2 µM [%]
COc1cc(OC)cc(C(=O)NC2CCCC(c3nc4cc(Cl)ccc4[nH]3)C2)c1 (stereo not drawn) [Example 25, N-(3-(6-Chloro-1H-benzo[d]imidazol-2-yl)cyclohexyl]-3,5-dimethoxybenzamide] | 99
COCCNCc1ccc2nc([C@H]3CCC[C@@H](NC(=O)c4ccc5c(c4)OCCO5)C3)[nH]c2c1 [Example 43] | 99
COc1cc(OC)cc(C(=O)NC2CCCC(c3nc4ccc(NS(=O)(=O)C(C)C)cc4[nH]3)C2)c1 (stereo not drawn) [Example 12, 3,5-Dimethoxy-N-(3-(5-(propan-2-ylsulfonamido)-1H-benzo[d]imidazol-2-yl)cyclohexyl)] | 62

Same assay, conditions: C3H 10T1/2, 2 μM test compound, SHh 250 ng/ml, 20 hrs, read-out: SMO CELL % INHIBITION @ 2 μM

Molecule | inhibition at 2 µM [%]
CN1[C@H](C(=O)N[C@@H]2CCC[C@H](c3nc4ccccc4[nH]3)C2)C[C@@H]2CCCC[C@@H]21 [Example 268, (2S,3aS,7aS)-N-[(1R,3S)-3-(1H-benzimidazol-2-yl)cyclohexyl]-1-methyloctahy-dro-1H-indole-2-carboxamide HCl] | 50.7
Cc1cc(C)n(CCC(=O)NC2CCCC(c3nc4ccccc4[nH]3)C2)n1 (stereo not drawn) [Example 120, N-[3-(1H-benzimidazol-2-yl)cyclohexyl]-3-(3,5-dimethyl-1H-pyrazol-1-yl)propanamide triflouroacetate] | 70
COc1cc(OC)cc(C(=O)N[C@@H]2CCC[C@H](c3nc4cc(Cl)ccc4[nH]3)C2)c1 [Example 298, N-[(1R,3S)-3-(5-chloro-1H-benzimidazol-2-yl)cyclohexyl]-3,5-dimethoxybenz-amide (+)-tartrate] | 104
O=C(N[C@@H]1CCC[C@H](c2nc3ccccc3[nH]2)C1)c1ccc2c(c1)CN(CC1CC1)CC2 [Example 267, N-[(1R,3S)-3-(1H-benzimidazol-2-yl)cyclohexyl]-2-(cyclopropyl-methyl)-1,2,3,4-tetrahydroiso-quinoline-7-carboxamide HCl] | 103
O=C(CCC1CCCC1)NC1CCCC(c2nc3ccccc3[nH]2)C1 (stereo not drawn) [Example 54, N-[3-(1H-benzimidazol-2-yl)cyclohexyl]-3-cyclopentylpro-panamide HCl] | 67
Cc1nc2cc(C(=O)N[C@@H]3CCC[C@H](c4nc5ccccc5[nH]4)C3)ccc2[nH]1 [Example 197, N-[(1R,3S)-3-(1H-benzimidazol-2-yl)cyclohexyl]-2-methyl-1H-benzimidazole-5-carboxamide triflouroacetate] | 50
CCc1ccc2nc(C(=O)N[C@@H]3CCC[C@H](c4nc5ccccc5[nH]4)C3)cn2c1 [Example 221, N-[(1R,3S)-3-(1H-benzimidazol-2-yl)cyclohexyl]-6-ethylimidazo[1,2-a]pyridine-2-carboxamide triflouroacetate] | 48
CCOC(=O)CCCCC(=O)NC1CCCC(c2nc3ccccc3[nH]2)C1 (stereo not drawn) [Example 98, ethyl 6-{[3-(1H-benzimidazol-2-yl)cyclohexyl]amino}-6-oxohexanoate trifl;uoroacetate] | 55
CCCN1CCNC(=O)C1CC(=O)NC1CCCC(c2nc3ccccc3[nH]2)C1 (stereo not drawn) [Example 110, N-[3-(1H-benzimidazol-2-yl)cyclohexyl]-2-(3-oxo-1-propylpiperazin-2-yl)acetamide triflouroacetate] | 86
O=C(N[C@H]1CCC[C@@H](c2nc3ccccc3[nH]2)C1)c1ccc2c(c1)OCCO2 [Example 72, N-((1S,3R)-3-(1H-benzo[d]imidazol-2-yl)cyclohexyl)-2,3-dihydrobenzo[b] [1,4]dioxine-6-carboxamide HCl] | 96
O=C(N[C@@H]1CCC[C@H](c2nc3ccccc3[nH]2)C1)c1ccc2oc(=O)[nH]c2c1 [Example 213, N-[(1R,3S)-3-(1H-benzimidazol-2-yl)cyclohexyl]-2-oxo-2,3-dihydro-1,3-benzoxazole-5-carboxamide triflouroacetate] | 73
CN1CCCc2cc(C(=O)N[C@@H]3CCC[C@H](c4nc5ccccc5[nH]4)C3)ccc21 [Example 200, N-[(1R,3S)-3-(1H-benzimidazol-2-yl)cyclohexyl]-1-methyl-1,2,3,4-tetrahydroquino-line-6-carboxamide HCl] | 110
O=C(Nc1ccc(Cl)c(C(F)(F)F)c1)N[C@@H]1CCC[C@H](c2nc3ccccc3[nH]2)C1 [Example 238, 1-[(1R,3S)-3-(1H-benzimidazol-2-yl)cyclohexyl]-3-[4-chloro-3-(trifluoromethyl)phenyl]urea] | 114
O=C(COCc1ccccc1)NC1CCCC(c2nc3ccccc3[nH]2)C1 (stereo not drawn) [Example 104, N-[3-(1H-benzimidazol-2-yl)cyclohexyl]-2-(benzyloxy)-acetamide triflouroacetate] | 73
CN1C(=O)COc2ccc(C(=O)N[C@@H]3CCC[C@H](c4nc5cc(Cl)ccc5[nH]4)C3)cc21 [Example 301, N-[(1R,3S)-3-(5-chloro-1H-benzimidazol-2-yl)cyclohexyl]-4-methyl-3-oxo-3,4-dihydro-2H-1,4-benzoxazine-6-carboxamide (+)-tartrate] | 108
COc1ccc2[nH]c([C@@H]3CCC[C@H](NC(=O)c4ccc5c(c4)OCCO5)C3)nc2c1 [Example 239, N-((1S,3R)-3-(5-methoxy-1H-benzo[d]imidaz-ol-2-yl)cyclohexyl)-2,3-dihydrobenzo[b] [1,4]dioxine-6-carboxamide HCl] | 23
O=C(CCC(=O)c1ccccc1)NC1CCCC(c2nc3ccccc3[nH]2)C1 (stereo not drawn) [Example 89, N-[3-(1H-benzimidazol-2-yl)cyclohexyl]-4-oxo-4-phenylbutanamide triflouroacetate] | 96
CC(C)(C)c1ccc2nc(C3CCCC(NC(=O)c4ccc5c(c4)OCCO5)C3)[nH]c2c1 (stereo not drawn) [Example 78, N-[3-(6-tert-butyl-1H-benzimidazol-2-yl)cyclohexyl]-2,3-dihydro-1,4-benzodioxine-6-carboxamide HCl] | 100
O=C(N[C@@H]1CCC[C@H](c2nc3cc(Cl)ccc3[nH]2)C1)c1ccc2c(c1)CN(CC1CC1)CC2 [Example 296, N-[(1R,3S)-3-(5-chloro-1H-benzimidazol-2-yl)cyclohexyl]-2-(cyclopropyl-methyl)-1,2,3,4-tetrahydroisoquino-line-7-carboxamide (+)-tartrate] | 106
Cc1n[nH]c(C)c1/C=C/C(=O)NC1CCCC(c2nc3ccccc3[nH]2)C1 (stereo not drawn) [Example 136, (2E)-N-[3-(1H-benzimidazol-2-yl)cyclohexyl]-3-(3,5-dimethyl-1H-pyrazol-4-yl)acrylamide triflouroacetate] | 86
O=C(N[C@@H]1CCC[C@H](c2nc3ccccc3[nH]2)C1)c1n[nH]c2ccccc12 [Example 199, N-[(1R,3S)-3-(1H-benzimidazol-2-yl)cyclohexyl]-1H-indazole-3-carboxamide triflouroacetate] | 67
COc1ccc(NC(=O)N[C@@H]2CCC[C@H](c3nc4ccccc4[nH]3)C2)c(C)c1 [Example 235, 1-[(1R,3S)-3-(1H-benzimidazol-2-yl)cyclohexyl]-3-(4-methoxy-2-methylphenyl) urea] | 98
O=C(C[C@H]1C[C@H]2C=C[C@@H]1C2)NC1CCCC(c2nc3ccccc3[nH]2)C1 (stereo partly drawn) [Example 125, N-[3-(1H-benzimidazol-2-yl)cyclohexyl]-2-[(1S,2S,4S)-bicyclo[2.2.1]hept-5-en-2-yl]acetamide triflouroacetate] | 103
O=C(NC1CCCC(c2nc3ccccc3[nH]2)C1)c1ccc(-c2cnco2)cc1 (stereo not drawn) [Example 160, N-[3-(1H-benzimidazol-2-yl)cyclohexyl]-4-(1,3-oxazol-5-yl)benzamide triflouroacetate] | 72
O=C1CCc2cc(C(=O)N[C@@H]3CCC[C@H](c4nc5cc(Cl)ccc5[nH]4)C3)ccc2N1 [Example 300, N-[(1R,3S)-3-(5-chloro-1H-benzimidazol-2-yl)cyclohexyl]-2-oxo-1,2,3,4-tetrahydroquino-line-6-carboxamide (+)-tartrate] | 106
O=C(Nc1ccc(Cl)cc1Cl)N[C@@H]1CCC[C@H](c2nc3ccccc3[nH]2)C1 [Example 234, 1-[(1R,3S)-3-(1H-benzimidazol-2-yl)cyclohexyl]-3-(2,4-dichlorophenyl) urea] | 108
